Assay results reported in patent US10526373B2, “Peptide showing melanin generation-promoting activity and use thereof” (CAREGEN CO., LTD., priority 2016, dated 2020).
No end group written: not given here.

How the values were obtained:
Assay type in all cases: cell-based
MITF [1] = test: RT-PCR of melanogenesis-related genes: MITF; settings: mouse melanin cell line B16F10, 72 hours
Method: (§1) Melanocytes (B16F10 cell line) were incubated on 6-well culture plates in an incubator for 24 hours, and were treated with the peptides of the present invention with different concentrations. After RNA was extracted from the cells incubated for 72 hours, cDNA was prepared. PCR was performed by using respective primers specific to MITF and tyrosinase, which are the factors involved in melanogenesis, and the expression changes of the respective genes were observed.

[2] = system: melanocytes (B16F10 cell line); test: Melanogenesis assay; settings: mouse melanin cell line B16F10, peptide at different concentrations, 72 hours
Method: After melanocytes (B16F10 cell line) in 6-well plates were cultured in an incubator at 37° C. for 24 hours, the medium of each plate was removed and exchanged with fresh medium, followed by treatment with the present peptide at different concentrations. After the incubation for 72 hours, the culture medium was removed, and the cells were taken off and then transferred into 5-ml tubes, followed by centrifugation at 13,000 rpm for 3 minutes. The supernatant was removed, and cell pellets were collected to observe melanin. Then, 150 μl of 2 M NaOH was added to the cell pellets to lyse intracellular melanin at 60° C. for 30 minutes. Then, 100 μl of the supernatant obtained from the lysis was added into each well of 96-well plates, and the absorbance was measured at 490 nm.

tyrosinase [3] = test: Western blotting of melanogenesis-related proteins: tyrosinase; settings: mouse melanin cell line B16F10, 72-hour incubation
Method: (§2) Melanocytes (B16F10 cell line) were incubated on 6-well culture plates in an incubator for 24 hours, and were treated with the peptides of the present invention with different concentrations. After 72-hour incubation, the cells were lysed, and the cells were subjected to western blotting using specific antibodies (two types, both by Santa Cruz Biotechnology, USA) to investigate the expression of MITF and tyrosinase, which are the factors involved in melanogenesis.

TRP1 = test: RT-PCR of melanogenesis-related genes: TRP1; settings: mouse melanin cell line B16F10, 72 hours
tyrosinase [4] = test: RT-PCR of melanogenesis-related genes: tyrosinase; settings: mouse melanin cell line B16F10, 72 hours
Method: as §1

tyrosinase [5] = test: Tyrosinase activity assay in B16F10 cell lysate (L-dopa); settings: mouse melanin cell line B16F10, peptide at different concentrations, 72 hours
Method: Melanoma cell line (B16F10) cells were cultured in 6-well culture plates for 24 hours, and treated with the peptide with difference concentrations, followed by culture for 72 hours. The 6-well culture plates were loaded on ice and washed with cool PBS, and then 300 μl of 0.1 M sodium phosphate buffer (pH 6 lysis buffer) containing 1% Triton X-100 was added. The cells were collected in 1.5-mL tubes, and then cell membranes were disrupted by repeating five times rapid-freezing at […] and thawing. After centrifugation at 13,000 rpm for 20 minutes, the supernatant was collected in other 1.5-mL tubes, and the protein of the samples was quantified. The samples were diluted to have the same protein concentration and then dispensed in every three wells in 96-well culture plates, and then 20 μl of 10 mM L-dopa was added, followed by incubation at 37° C. for 1 hour. The absorbance was measured at 475 nm.

CREB = test: Melanogenesis-related protein activity assay (CREB phosphorylation, western blotting); settings: mouse melanin cell line B16F10, 72-hour incubation
Method: Melanocytes (B16F10 cell line) were incubated on 6-well culture plates in an incubator for 24 hours, and were treated with the peptide of the present invention with different concentrations. After 72-hour incubation, the cells were lysed, and the cells were subjected to western blotting using specific antibodies (Cell Signaling Technology, USA) to investigate the phosphorylation level of CREB, which is a signaling substance involved in melanogenesis.

MITF [6] = test: Western blotting of melanogenesis-related proteins: MITF; settings: mouse melanin cell line B16F10, 72-hour incubation
Method: as §2

FCLGPCPYIWSL (cysteine pairing not given here) [SEQ ID NO: 2]
increased: mRNA expression of MITF (MITF [1]) | melanogenesis (melanin, absorbance at 490 nm) [2] | protein expression of tyrosinase (tyrosinase [3]) | mRNA expression of TRP1 (TRP1) | mRNA expression of tyrosinase (tyrosinase [4]) | tyrosinase activity (absorbance at 475 nm) (tyrosinase [5])

RWRRKIEN [SEQ ID NO: 1]
increased: phosphorylation level of CREB (CREB) | mRNA expression of MITF (MITF [1]) | melanogenesis (melanin, absorbance at 490 nm) [2] | protein expression of tyrosinase (tyrosinase [3]) | mRNA expression of TRP1 (TRP1) | protein expression of the MITF transcriptional factor (MITF [6]) | mRNA expression of tyrosinase (tyrosinase [4]) | tyrosinase activity (absorbance at 475 nm) (tyrosinase [5])
